Data from ChEMBL document CHEMBL3994568 (2016).
≈ marks a conversion by molar mass, not a printed value. Calls of active or inactive are those of the source. No cut-off for these calls is given here.

Key:
[1] = system: Bacillus; experiment: Antibacterial activity against Bacillus proteus ATCC 13315 after 24 hrs by two-fold microbroth dilution method; assay type: functional; conditions: ATCC 13315, 24 h
[2] = system: Escherichia coli; experiment: Antibacterial activity against Escherichia coli JM109 after 24 hrs by two-fold microbroth dilution method; assay type: functional; conditions: JM109, 24 h
[3] = system: Pseudomonas aeruginosa; experiment: Antibacterial activity against Pseudomonas aeruginosa ATCC 27853 after 24 hrs by two-fold microbroth dilution method; assay type: functional; conditions: ATCC 27853, 24 h
[4] = Antibacterial activity against Eberthella typhosa ATCC 14028 after 24 hrs by two-fold microbroth dilution method; assay type: functional; conditions: ATCC 14028, 24 h
[5] = system: Staphylococcus aureus; experiment: Antibacterial activity against methicillin-resistant Staphylococcus aureus N315 after 24 hrs by two-fold microbroth dilution method; assay type: functional; conditions: N315, 24 h
[6] = system: Staphylococcus aureus; experiment: Antibacterial activity against Staphylococcus aureus ATCC 25923 after 24 hrs by two-fold microbroth dilution method; assay type: functional; conditions: ATCC 25923, 24 h
[7] = system: Bacillus spizizenii; experiment: Antibacterial activity against Bacillus subtilis ATCC 6633 after 24 hrs by two-fold microbroth dilution method; assay type: functional; conditions: ATCC 6633, 24 h
[8] = system: Micrococcus luteus; experiment: Antibacterial activity against Micrococcus luteus ATCC 4698 after 24 hrs by two-fold microbroth dilution method; assay type: functional; conditions: NCTC 2665, 24 h
[9] = system: Cyberlindnera jadinii; experiment: Antifungal activity against Candida utilis ATCC 9950 after 24 hrs by two-fold microbroth dilution method; assay type: functional; conditions: Williopsis jadinii, ATCC 9950, 24 h
[10] = system: Aspergillus flavus; experiment: Antifungal activity against Aspergillus flavus ATCC 204304 after 24 hrs by two-fold microbroth dilution method; assay type: functional; conditions: ATCC 204304, 24 h
[11] = system: Saccharomyces cerevisiae; experiment: Antifungal activity against Saccharomyces cerevisiae ATCC 9763 after 24 hrs by two-fold microbroth dilution method; assay type: functional; conditions: ATCC 9763, 24 h
[12] = system: Candida albicans; experiment: Antifungal activity against Candida albicans ATCC 10231 after 24 hrs by two-fold microbroth dilution method; assay type: functional; conditions: ATCC 10231, 24 h
[13] = system: Pichia norvegensis; experiment: Antifungal activity against Candida mycoderma ATCC 9888 after 24 hrs by two-fold microbroth dilution method; assay type: functional; conditions: ATCC 9888, 24 h
[14] = system: HEp-2; experiment: Cytotoxicity against human Hep2 cells assessed as cell viability up to 125 ug/ml after 24 hrs by CCK8 assay relative to control; assay type: functional
[15] = species: Bos taurus; experiment: Binding affinity to calf thymus DNA assessed as hypochromic effect by UV-vis absorption spectra analysis
[16] = species: Bos taurus; experiment: Binding affinity to calf thymus DNA by UV-vis absorption spectra analysis
[17] = species: Bos taurus; experiment: Induction of calf thymus DNA intercalation assessed as compound-DNA complex formation at 5 x 10^-5mol/L by fluorescence spectroscopic method
[18] = species: Bos taurus; experiment: Induction of calf thymus DNA intercalation assessed as inhibition of neutral red binding to DNA by UV-vis absorption spectra analysis
[19] = system: Staphylococcus aureus; experiment: Potency index, ratio of chloromycin MIC to compound MIC for methicillin-resistant Staphylococcus aureus N315; assay type: functional
[20] = system: Staphylococcus aureus; experiment: Potency index, ratio of norfloxacin MIC to compound MIC for methicillin-resistant Staphylococcus aureus N315; assay type: functional
[21] = system: Pseudomonas aeruginosa; experiment: Potency index, ratio of chloromycin MIC to compound MIC for Pseudomonas aeruginosa ATCC 27853; assay type: functional

Row | SMILES | MIC [1] | MIC [2] | MIC [3] | MIC [4] | MIC [5] | MIC [6] | MIC [7] | MIC [8] | MIC [9] | MIC [10] | MIC [11] | MIC [12] | MIC [13] | Activity [14] | further results
1 | CCCCCCCn1c2ccc(-c3csc(N)n3)cc2c2cc(-c3csc(N)n3)ccc21 | 256 µg/mL (≈ 555 µM) | 128 µg/mL (≈ 277 µM) | 128 µg/mL (≈ 277 µM) | 128 µg/mL (≈ 277 µM) | 4 µg/mL (≈ 8.66 µM) | 16 µg/mL (≈ 34.7 µM) | 256 µg/mL (≈ 555 µM) | 64 µg/mL (≈ 139 µM) | 256 µg/mL (≈ 555 µM) | 256 µg/mL (≈ 555 µM) | 128 µg/mL (≈ 277 µM) | 128 µg/mL (≈ 277 µM) | 64 µg/mL (≈ 139 µM) | 85% | Activity [15]: Dose-dependent effect; K [16]: 2.71 ×10⁴ L/mol; Activity [17]: Active; inhibition [18]: Dose-dependent effect; Ratio [19]: 16; Ratio [20]: 2
2 | CCCCCn1c2ccc(-c3csc(N)n3)cc2c2cc(-c3csc(N)n3)ccc21 | 256 µg/mL (≈ 590 µM) | 256 µg/mL (≈ 590 µM) | 2 µg/mL (≈ 4.61 µM) | 128 µg/mL (≈ 295 µM) | 128 µg/mL (≈ 295 µM) | 64 µg/mL (≈ 148 µM) | 256 µg/mL (≈ 590 µM) | 64 µg/mL (≈ 148 µM) | 128 µg/mL (≈ 295 µM) | 256 µg/mL (≈ 590 µM) | 128 µg/mL (≈ 295 µM) | 128 µg/mL (≈ 295 µM) | 64 µg/mL (≈ 148 µM) | 85% | Ratio [21]: 8
3 | CCCCCCCCCCCCCCCCCCn1c2ccc(C(=O)CCl)cc2c2cc(C(=O)CCl)ccc21 | 512 µg/mL (≈ 894 µM) | 256 µg/mL (≈ 447 µM) | 256 µg/mL (≈ 447 µM) | 256 µg/mL (≈ 447 µM) | 256 µg/mL (≈ 447 µM) | 128 µg/mL (≈ 224 µM) | 512 µg/mL (≈ 894 µM) | 512 µg/mL (≈ 894 µM) | 512 µg/mL (≈ 894 µM) | 256 µg/mL (≈ 447 µM) | 256 µg/mL (≈ 447 µM) | 512 µg/mL (≈ 894 µM) | 512 µg/mL (≈ 894 µM) |  | 
